Results reported in patent publication US4906624A, “6-(((Substituted)pyridin-3-yl)alkyl)-and alkenyl)-tetrahydro-4-hydroxypyran-2-one inhibitors of cholesterol biosynthesis” (Warner-Lambert Company, priority 1988, dated 1990).
Structures can show the parent of a compound that is named as a salt.

Tests used:
[1] = tested on: sterol synthesis (cholesterol biosynthesis) in rat liver homogenate; test: CSI screen: inhibition of sterol/cholesterol synthesis (14C-acetate incorporation into nonsaponifiable lipid) by rat liver homogenate; format: biochemical; conditions: one-hour period, rats fed 5% cholestyramine for four days, 60 min, read-out: CSI/IC50 (concentration required for 50% inhibition of sterol synthesis)
Procedure: The ability of compounds of the present invention to inhibit the biosynthesis of cholesterol was measured by a method (designated CSI screen) which utilizes the procedure described by R. E. Dugan, et al, Archiv. Biochem. Biophys., (1972), 152, 21-27. In this method, the level of HMG-CoA enzyme activity in standard laboratory rats is increased by feeding the rats a chow diet containing 5% cholestyramine for four days, after which the rats are sacrificed.
The rat livers are homogenized, and the incorporation of […] into nonsaponifiable lipid by the rat liver homogenate is measured. The micromolar concentration of compound required for 50% inhibition of sterol synthesis over a one-hour period is measured, and expressed as an IC50 value.

[2] = tested on: Cholesterol Synthesis; test: AICS screen: inhibition of cholesterol synthesis in rats (plasma [14C]cholesterol after sodium [1-14C]-acetate); format: in vivo; conditions: Rattus norvegicus, 50 min, single dose, oral gavage, male Sprague-Dawley rats fed 5% cholestyramine, acetate one hour after drug, blood after 50 minutes
Procedure: The ability of compounds of the present invention to inhibit the biosynthesis of cholesterol was also measured by a method (designated AICS screen) which utilizes the procedure described by A. W. Alberts et al, Proc. Natl. Acad. Sci., (1980), 77, pp 3957-3961.
In this method male Sprague-Dawley rats (200 g body weight) previously fed 5% cholestyramine for three days were randomly divided into groups (N=5/group) and given a single dose of vehicle (controls) or compound by an oral gavage at the indicated doses. One hour after drug dosing, all rats were injected intraperitoneally with sodium[1-^14 C]-acetate (18.75 μCi/rat in 0.2 ml saline). After 50 minutes, blood samples were taken, plasma obtained by centrifugation, and plasma [^14 C]cholesterol measured after saponification and extraction.

SMILES	IC50 [1] [µM]	also measured
Cc1nccc(-c2ccccc2)c1/C=C/[C@@H]1C[C@@H](O)CC(=O)O1 (relative stereo) [Example 1, [4α,6β(E)]-Tetrahydro-4-hydroxy-6-[2-(2-methyl-4-phenyl-3-pyridinyl)ethenyl]-2H-pyran-2-one]	0.36	–
Cc1cc(-c2ccccc2)c(/C=C/[C@@H]2C[C@@H](O)CC(=O)O2)c(C)n1 (relative stereo) [Example 2, [4α,6β(E)]-6-[2-(2,6-Dimethyl-4-phenyl-3-pyridinyl)ethenyl]tetrahydro-4-hydroxy-2H-pyran-2-one]	0.18	–
Cc1cc(-c2ccccc2)c(/C=C/[C@@H](O)C[C@@H](O)CC(=O)O)c(C)n1 (relative stereo) [Example 3, [R*,S*(E)]-7-(2,6-dimethyl-4-phenyl-3-pyridinyl)-3,5-dihydroxy-6-heptenoicacid, sodium salt]	0.23	–
Cc1nccc(-c2ccccc2)c1CC[C@H]1C[C@H](O)CC(=O)O1 (relative stereo) [Example 4, trans-Tetrahydro-4-hydroxy-6-[2-(2-methyl-4-phenyl-3-pyridinyl)ethyl]-2H-pyran-2-one]	0.42	–
Cc1nc(C)c(/C=C/[C@@H](O)C[C@@H](O)CC(=O)O)c(-c2ccc(F)cc2)c1C#N (relative stereo) [Example 6, [R*,S*(E)]-7-[5-Cyano-4-(4-fluorophenyl)-2,6-dimethyl-3-pyridinyl]-3,5-dihydroxy-6-heptenoic acid, sodium salt]	0.062	–
Cc1cc(-c2ccc(F)cc2)c(/C=C/[C@@H]2C[C@@H](O)CC(=O)O2)c(C)n1 (relative stereo) [Example 7, [4α,6β(E)]-6-[2-[4-(4-Fluorophenyl)-2,6-dimethyl-3-pyridinyl]ethenyl]tetrahydro-4-hydroxy-2H-pyran-2-one]	0.068	–
Cc1cc(-c2ccc(F)cc2)c(/C=C/[C@@H](O)C[C@@H](O)CC(=O)O)c(C)n1 (relative stereo) [Example 8, [R*,S*(E)]-7-[4-(4-Fluorophenyl)-2,6-dimethyl-3-pyridinyl]-3,5-dihydroxy-6-heptenoic acid, sodium salt]	0.072	–
COC(=O)c1c(C(C)C)nc(C)c(/C=C/[C@@H]2C[C@@H](O)CC(=O)O2)c1-c1ccc(F)cc1 (relative stereo) [Example 9]	–	change in vivo at 1.5 mg/kg [2]: -55%
COC(=O)c1c(C(C)C)nc(C)c(/C=C/[C@@H](O)C[C@@H](O)CC(=O)O)c1-c1ccc(F)cc1 (relative stereo) [Example 10, [R*,S*-(E)]-5-(6-carboxy-3,5-dihydroxy-1-hexenyl)-4-(4-fluorophenyl)-6-methyl-2-(1-methylethyl)-, 3-methyl ester, 3-pyridinecarboxylic acid, monosodium salt]	0.07	–
CCOC(=O)c1c(C)nc(C)c(/C=C/[C@@H]2C[C@@H](O)CC(=O)O2)c1-c1ccc(F)cc1 (relative stereo) [Example 11, [4α,6β-(E)]-4-(4-fluorophenyl)-2,6-dimethyl-5-[2-(tetrahydro-4-hydroxy-6-oxo-2H-pyran-2-yl)ethenyl]-, ethyl ester, 3-pyridinecarboxylic acid]	–	change in vivo at 1.5 mg/kg [2]: -41%
CCOC(=O)c1c(C)nc(C)c(/C=C/[C@@H](O)C[C@@H](O)CC(=O)O)c1-c1ccc(F)cc1 (relative stereo) [Example 12, [R*,S*-(E)]-5-(6-carboxy-3,5-dihydroxy-1-hexenyl)-4-(4-fluorophenyl)-2,6-dimethyl-, 3-ethyl ester, 3-pyridinecarboxylic acid, monosodium salt]	0.14	–
COC(=O)c1c(C(C)C)nc(C(C)C)c(/C=C/[C@@H]2C[C@@H](O)CC(=O)O2)c1-c1ccc(F)cc1 (relative stereo) [Example 13, [2α,4β-(E)]-4-(4-fluorophenyl)-2,6-bis(1-methylethyl)-5-[2-(tetrahydro-4-hydroxy-6-oxo-2H-pyran-2-yl)ethenyl]-3-pyridinecarboxylic acid, methyl ester]	–	change in vivo at 1 mg/kg [2]: -67%
COC(=O)c1c(C(C)C)nc(C(C)C)c(/C=C/[C@@H](O)C[C@@H](O)CC(=O)O)c1-c1ccc(F)cc1 (relative stereo) [Example 14, [R*,S*-(E)]-5-(6-carboxy-3,5-dihydroxy-1-hexenyl)-4-(4-fluorophenyl)-2,6-bis-1-methylethyl)-, methyl ester-3-pyridinecarboxylic acid, sodium salt]	0.079	–
CC(C)c1cc(-c2ccc(F)cc2)c(/C=C/[C@@H]2C[C@@H](O)CC(=O)O2)c(C(C)C)n1 (relative stereo) [Example 15]	–	change in vivo at 1 mg/kg [2]: -55%
CC(C)c1cc(-c2ccc(F)cc2)c(/C=C/[C@@H](O)C[C@@H](O)CC(=O)O)c(C(C)C)n1 (relative stereo) [Example 16, [R*,S*(E)]-7-[4-(4-fluorophenyl)-2,6-bis(1-methylethyl)-3-pyridinyl]-3,5-dihydroxy-6-heptenoic acid, monosodium salt]	0.03	–
Cc1cc(-c2ccc(F)cc2)c(/C=C/[C@@H](O)C[C@@H](O)CC(=O)O)c(C(C)C)n1 (relative stereo) [Example 20, [R*,S*-(E)]-7-[4-(4-fluorophenyl)-6-methyl-2-(1-methylethyl)-3-pyridinyl-3,5-dihydroxy-6-heptenoic acid, sodium salt]	0.016	–
Cc1cc(-c2ccc(F)cc2)c(/C=C/[C@@H](O)C[C@@H](O)CC(=O)O)c(C(F)(F)F)n1 (relative stereo) [Example 23, [R*,S*-(E)]-7-[4-(4-fluorophenyl)-6-methyl-2-(trifluoromethyl)-3,5-dihydroxy-6-heptenoic acid, monosodium salt]	0.05	–
O=C(O)C[C@H](O)C[C@H](O)/C=C/c1c(-c2ccc(F)cc2)cc(C(F)F)nc1C(F)(F)F (relative stereo) [Example 25, [R*,S*-(E)]-7-[6-(difluoromethyl)-4-(4-fluorophenyl)-2-(trifluoromethyl)-3-pyridinyl]-3,5-dihydroxy-6-heptenoic acid, monosodium salt]	0.071	–
CCc1cc(-c2ccc(F)cc2)c(/C=C/[C@@H](O)C[C@@H](O)CC(=O)O)c(CC)n1 (relative stereo) [Example 27, [R*,S*-(E)]-7-[2,6-diethyl-4-4-(fluorophenyl)-3-pyridinyl]-3,5-dihydroxy-6-heptenoic acid, monosodium salt]	0.032	–
Cc1cc(C)c(/C=C/[C@@H](O)C[C@@H](O)CC(=O)O)c(-c2ccc(F)cc2)n1 (relative stereo) [Example 29, [R*,S*-(E)]-7-[2-(4-fluorophenyl)-4,6-dimethyl-3-pyridinyl]-3,5-dihydroxy-6-heptenoic acid, monosodium salt]	0.05	–
CC(C)c1nc(-c2ccccc2)cc(-c2ccc(F)cc2)c1/C=C/[C@@H](O)C[C@@H](O)CC(=O)O (relative stereo) [Example 31, [R*,S*-(E)]-7-[2-[4-(4-fluorophenyl)-2-(1-methylethyl)-6-phenyl-3-pyridinyl]ethenyl]-3,5-dihydroxy-6-heptenoic acid, monosodium salt]	0.058	–
CCCNC(=O)c1c(C(C)C)nc(C(C)C)c(/C=C/[C@@H](O)C[C@@H](O)CC(=O)O)c1-c1ccc(F)cc1 (relative stereo) [Example 33, [R*,S*-(E)]-7-[4-(4-fluorophenyl)-2,6-bis(1-methylethyl)-5-[(propylamino)carbonyl]-3-pyridinyl]-3,5-dihydroxy-6-heptenoic acid, monosodium salt]	0.02	–
CCc1nc(CC)c(C(=O)OC)c(-c2ccc(F)cc2)c1/C=C/[C@@H](O)C[C@@H](O)CC(=O)O (relative stereo) [Example 35, [R*,S*-(E)]-5-(6-carboxy-3,5-dihydroxy-1-hexenyl)-2,6-diethyl-4-(4-fluorophenyl)-, methyl ester, 3-pyridinecarboxylic acid, monosodium salt]	0.044	–
CCc1nc(CC)c(CO)c(-c2ccc(F)cc2)c1/C=C/[C@@H](O)C[C@@H](O)CC(=O)O (relative stereo) [Example 37, [R*,S*-(E)]-7-[2,6-diethyl-4-(4-fluorophenyl)-5-(hydroxymethyl)-3-pyridinyl]-3,5-dihydroxy-6-heptenoic acid, monosodium salt]	0.024	–
COc1c(C)nc(C(C)C)c(/C=C/[C@@H](O)C[C@@H](O)CC(=O)O)c1-c1ccc(F)cc1 (relative stereo) [Example 39, [R*,S*-(E)]-7-[4-(4-fluorophenyl)-5-methoxy-6-methyl-2-(1-methylethyl)-3-pyridinyl]-3,5-dihydroxy-6-heptenoic acid, monosodium salt]	0.008	–
C=Cc1c(C)nc(C(C)C)c(/C=C/[C@@H](O)C[C@@H](O)CC(=O)O)c1-c1ccc(F)cc1 (relative stereo) [Example 41, [R*,S*-(E)]-7-[5-ethenyl-4-(4-fluorophenyl)-6-methyl-2-(1-methylethyl)-3-pyridinyl]-3,5-dihydroxy-6-heptenoic acid, monosodium salt]	0.011	–
